Laboratory results taken from patent publication US12077503B2, “Substituted cyclic amides and their use as herbicides” (FMC CORPORATION, priority 2015, dated 2024).

How the values were obtained:
Type in all cases: in vivo
[1] = test system: sedge, umbrella (small-flower umbrella sedge, Cyperus difformis); test: Test B flooded paddy test; details: Cyperus difformis, 250 g ai/ha, Flood; 0 to 100 scale where 0 is no effect and 100 is complete control; read-out: Sedge, Umbrella plant response rating
Method in brief: (§1)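 Flooding to 3 cm over soil accompanied treatment, which consisted of adding compound to the standing water around 2-leaf plants; depth was then maintained. Visual assessment versus controls followed at 13 to 15 d (scale 0–100, 0 meaning no effect).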

rice (Oryra sativa) = test: Test B flooded paddy test; details: Oryza sativa, 250 g ai/ha, Flood; 0 to 100 scale where 0 is no effect and 100 is complete control; read-out: Rice plant response rating
Method in brief: as §1

[2] = test system: barnyardgrass (Echinochloa crus-galli); test: Test B flooded paddy test; details: Echinochloa crus-galli, 250 g ai/ha, Flood; 0 to 100 scale where 0 is no effect and 100 is complete control; read-out: Barnyardgrass plant response rating
Method in brief: as §1

[3] = test system: ducksalad (Heteranthera limosa); test: Test B flooded paddy test; details: Heteranthera limosa, 250 g ai/ha, Flood; 0 to 100 scale where 0 is no effect and 100 is complete control; read-out: Ducksalad plant response rating
Method in brief: as §1

Kochia (Kochia scoparia) [4] = test: Test A postemergence; details: Bassia scoparia, post-emergence, 240 h
Method in brief: (§2)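 Preemergence directed soil spray on seeded pots, or postemergence application to plants 2–10 cm, one- to two-leaf. Solvent mixture non-phytotoxic, with surfactant. Scored ~10 d later, visually, 0–100 vs untreated.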

[5] = test system: ragweed (common ragweed, Ambrosia elatior); test: Test A postemergence; details: Ambrosia artemisiifolia, post-emergence, 240 h
Method in brief: as §2

[6] = test system: barnyardgrass (Echinochloa crus-galli); test: Test A postemergence; details: Echinochloa crus-galli, post-emergence, 240 h
Method in brief: as §2

[7] = test system: giant foxtail (Setaria faberii); test: Test A postemergence; details: Setaria faberi, post-emergence, 240 h
Method in brief: as §2

[8] = test system: Galium (catchweed bedstraw, Galium aparine); test: Test A postemergence; details: Galium, post-emergence, 240 h
Method in brief: as §2

[9] = test system: ryegrass, Italian (Italian ryegrass, Lolium multiflorum); test: Test A postemergence; details: Lolium multiflorum, post-emergence, 240 h
Method in brief: as §2

[10] = test system: pigweed (Amaranthus retroflexus); test: Test A postemergence; details: Amaranthus retroflexus, post-emergence, 240 h
Method in brief: as §2

[11] = test system: wheat (Triticum aestivum); test: Test A postemergence; details: Triticum aestivum, post-emergence, 240 h
Method in brief: as §2

[12] = test system: blackgrass (Alopecurus myosuroides); test: Test A postemergence; details: Alopecurus myosuroides, post-emergence, 240 h
Method in brief: as §2

corn (Zea mays) = test: Test A postemergence; details: Zea mays, post-emergence, 240 h
Method in brief: as §2

Kochia (Kochia scoparia) [13] = test: Test A preemergence; details: Bassia scoparia, pre-emergence, 240 h, 0 to 100 scale where 0 is no effect and 100 is complete control, read-out: Kochia plant response rating
Method in brief: as §2

[14] = test system: ragweed (common ragweed, Ambrosia elatior); test: Test A preemergence; details: Ambrosia artemisiifolia, pre-emergence, 240 h, 0 to 100 scale where 0 is no effect and 100 is complete control, read-out: Ragweed plant response rating
Method in brief: as §2

[15] = test system: barnyardgrass (Echinochloa crus-galli); test: Test A preemergence; details: Echinochloa crus-galli, pre-emergence, 240 h, Preemergence
Method in brief: as §2

[16] = test system: giant foxtail (Setaria faberii); test: Test A preemergence; details: Setaria faberi, pre-emergence, 240 h, Preemergence
Method in brief: as §2

[17] = test system: ryegrass, Italian (Italian ryegrass, Lolium multiflorum); test: Test A preemergence; details: Lolium multiflorum, pre-emergence, 240 h, 0 to 100 scale where 0 is no effect and 100 is complete control, read-out: Ryegrass, Italian plant response rating
Method in brief: as §2

[18] = test system: pigweed (Amaranthus retroflexus); test: Test A preemergence; details: Amaranthus retroflexus, pre-emergence, 240 h, 0 to 100 scale where 0 is no effect and 100 is complete control, read-out: Pigweed plant response rating
[19] = 125 g ai/ha, preemergence, approx. 10 d

SMILES: CN1C[C@H](c2ccc(C(F)(F)F)cc2)[C@@H](C(=O)Nc2cnccc2C(F)(F)F)C1=O [Compound 1065]
- pest or weed control at 250 g/ha [1]: 0%
- pest or weed control at 250 g/ha (rice (Oryra sativa)): 0%
- pest or weed control at 250 g/ha [2]: 0%
- pest or weed control at 250 g/ha [3]: 100%
- pest or weed control at 125 g/ha (Kochia (Kochia scoparia) [4]; 125 g ai/ha, postemergence, visual injury on 0 to 100 scale (0 no effect, 100 complete control), approx. 10 d, read-out: Kochia plant response rating): 40%
- pest or weed control at 31 g/ha (Kochia (Kochia scoparia) [4]; Postemergence, 31 g ai/ha, visual injury after approx. 10 d, 0 to 100 scale, 0 no effect, 100 complete control, read-out: Plant response rating, Kochia): 0%
- pest or weed control at 125 g/ha ([5]; 125 g ai/ha, postemergence, visual injury on 0 to 100 scale (0 no effect, 100 complete control), approx. 10 d, read-out: Ragweed plant response rating): 0%
- pest or weed control at 31 g/ha ([5]; Postemergence, 31 g ai/ha, visual injury after approx. 10 d, 0 to 100 scale, 0 no effect, 100 complete control, read-out: Plant response rating, Ragweed): 0%
- pest or weed control at 125 g/ha ([6]; 125 g ai/ha, postemergence, visual injury on 0 to 100 scale (0 no effect, 100 complete control), approx. 10 d, read-out: Barnyardgrass plant response rating): 40%
- pest or weed control at 31 g/ha ([6]; Postemergence, 31 g ai/ha, visual injury after approx. 10 d, 0 to 100 scale, 0 no effect, 100 complete control, read-out: Plant response rating, Barnyardgrass): 0%
- pest or weed control at 125 g/ha ([7]; 125 g ai/ha, postemergence, visual injury on 0 to 100 scale (0 no effect, 100 complete control), approx. 10 d, read-out: Foxtail, Giant plant response rating): 70%
- pest or weed control at 31 g/ha ([7]; Postemergence, 31 g ai/ha, visual injury after approx. 10 d, 0 to 100 scale, 0 no effect, 100 complete control, read-out: Plant response rating, Foxtail, Giant): 0%
- pest or weed control at 125 g/ha ([8]; 125 g ai/ha, postemergence, visual injury on 0 to 100 scale (0 no effect, 100 complete control), approx. 10 d, read-out: Galium plant response rating): 70%
- pest or weed control at 31 g/ha ([8]; Postemergence, 31 g ai/ha, visual injury after approx. 10 d, 0 to 100 scale, 0 no effect, 100 complete control, read-out: Plant response rating, Galium): 40%
- pest or weed control at 125 g/ha ([9]; 125 g ai/ha, postemergence, visual injury on 0 to 100 scale (0 no effect, 100 complete control), approx. 10 d, read-out: Ryegrass, Italian plant response rating): 40%
- pest or weed control at 31 g/ha ([9]; Postemergence, 31 g ai/ha, visual injury after approx. 10 d, 0 to 100 scale, 0 no effect, 100 complete control, read-out: Plant response rating, Ryegrass, Italian): 0%
- pest or weed control at 125 g/ha ([10]; 125 g ai/ha, postemergence, visual injury on 0 to 100 scale (0 no effect, 100 complete control), approx. 10 d, read-out: Pigweed plant response rating): 40%
- pest or weed control at 31 g/ha ([10]; Postemergence, 31 g ai/ha, visual injury after approx. 10 d, 0 to 100 scale, 0 no effect, 100 complete control, read-out: Plant response rating, Pigweed): 0%
- plant injury at 125 g/ha ([11]; 125 g ai/ha, postemergence, visual injury on 0 to 100 scale (0 no effect, 100 complete control), approx. 10 d, read-out: Wheat plant response rating): 20%
- plant injury at 31 g/ha ([11]; Postemergence, 31 g ai/ha, visual injury after approx. 10 d, 0 to 100 scale, 0 no effect, 100 complete control, read-out: Plant response rating, Wheat): 0%
- pest or weed control at 125 g/ha ([12]; 125 g ai/ha, postemergence, visual injury on 0 to 100 scale (0 no effect, 100 complete control), approx. 10 d, read-out: Blackgrass plant response rating): 50%
- pest or weed control at 31 g/ha ([12]; Postemergence, 31 g ai/ha, visual injury after approx. 10 d, 0 to 100 scale, 0 no effect, 100 complete control, read-out: Plant response rating, Blackgrass): 0%
- plant injury at 125 g/ha (corn (Zea mays); 125 g ai/ha, postemergence, visual injury on 0 to 100 scale (0 no effect, 100 complete control), approx. 10 d, read-out: Corn plant response rating): 20%
- Corn plant response rating (crop injury, 0 = no effect, 100 = complete kill) at 31 g/ha (corn (Zea mays); Postemergence, 31 g ai/ha, visual injury after approx. 10 d, 0 to 100 scale, 0 no effect, 100 complete control): 0%
- pest or weed control at 31 g/ha (Kochia (Kochia scoparia) [13]; 31 g ai/ha, Preemergence): 0%
- pest or weed control at 125 g/ha (Kochia (Kochia scoparia) [13]; [19]): 70%
- pest or weed control at 31 g/ha ([14]; 31 g ai/ha, Preemergence): 0%
- pest or weed control at 125 g/ha [14, 19]: 0%
- pest or weed control at 31 g/ha ([15]; 31 g ai/ha, 0 to 100 scale where 0 is no effect and 100 is complete control, read-out: Barnyardgrass plant response rating): 0%
- pest or weed control at 125 g/ha ([15]; 125 g ai/ha, visual injury rating after approximately 10 d, read-out: Barnyardgrass plant response rating (0 to 100 scale, 0 is no effect, 100 is complete control)): 70%
- pest or weed control at 31 g/ha ([16]; 31 g ai/ha, 0 to 100 scale where 0 is no effect and 100 is complete control, read-out: Foxtail, Giant plant response rating): 90%
- pest or weed control at 125 g/ha ([16]; 125 g ai/ha, visual injury rating after approximately 10 d, read-out: Foxtail, Giant plant response rating (0 to 100 scale, 0 is no effect, 100 is complete control)): 100%
- pest or weed control at 31 g/ha ([17]; 31 g ai/ha, Preemergence): 0%
- pest or weed control at 125 g/ha [17, 19]: 30%
- pest or weed control at 31 g/ha ([18]; 31 g ai/ha, Preemergence): 30%
- pest or weed control at 125 g/ha [18, 19]: 70%
